The record followed here is article PMC9741287, “Cytotoxic and Luminescent Properties of Novel Organotin Complexes with Chelating Antioxidant Ligand” (Molecules, 2022).

Usually IC50 stands for the concentration needed to halve the response being measured.

The subject of assay [1] is formation of advanced glycation end products (AGEs). In words: Antiglycation activity (BSA-glucose, AGE fluorescence). The format is biochemical. The following applies: for Antiglycation activity, M ± SEM: 24 h at 60 °C. How it is done:
The glycation reaction was carried out in a phosphate buffer solution of 0.05 M, pH 7.4. Composition of the reaction medium: 0.36 M glucose solution and 1 mg/mL BSA (fraction V). The test compounds were dissolved in 99% DMSO (final concentration in the reaction medium ~3%). The activity of compound 1 was studied in the concentration range of 1000–0.1 μM, and the activity of aminoguanidine was determined at concentrations of 10,000–1000 μM. Control samples contained an equivalent volume of solvent. The samples were incubated for 24 h at 60 °C.
Data registration was carried out by the spectrofluorimetric method, determining AGE by specific fluorescence at excitation/emission wavelengths of 370/440 nm (spectrofluorimeter M 200 PRO, TECAN Austria GmbH, Grödig, Austria).
In order to exclude false positive results for compounds suppressing AGE fluorescence due to interference, the obtained data were logarithmically normalized according to Equation (4):Fly(log) = 10^(log10(Exp)−log10(Blank)) − 1(4) where Fly(log) is the normalized AGE fluorescence intensity, log10(Exp) and log10(blank) are the decimal logarithms of the actual fluorescence levels of glycated and corresponding non-glycated samples (both containing the test compound and controls).
The activity of other compounds (both non-fluorescent and fluorescent at the wavelengths used) was expressed by the Equation (5):Fly(lin) = Exp − Blank(5) where Fly(lin) is the fluorescence intensity of AGEs, Exp and blank are the actual fluorescence levels of glycated and corresponding non-glycated samples (both those containing the test compound and controls).
Determination of activity expressed as % suppression of fluorescence of AGE, was made according to the Equation (6):% = 100 − (Fly(Exp) × 100/Fly(Contr))(6) where Fly(Exp) and Fly(Contr) are the CPG fluorescence intensity of experimental and control samples, respectively (log-normalized or non-log-normalized).

For assay [2], the system named is A549 (human lung adenocarcinoma). The experiment in a line: MTT-test A549. The assay is classed as cell-based. How it is done:
(§1) Since the investigated compounds are designed as theranostic and cytostatic agents, their toxic impact was evaluated as a standard MTT-test. Cytotoxicity was studied on four cell lines, i.e.,—HCT116 (human colorectal carcinoma), MCF-7 (human breast cancer), A549 (human lung adenocarcinoma), and WI-38 (human fetal lung fibroblast). Obtained results appear to be unorthodox: as it is known, the introduction of an organotin moiety tends to noticeably increase compounds’ toxicity and more lipophilic ones do it better, but in the presented data pattern turns vice versa (Table 3).
(§2) HCT-116 (colon carcinoma), MCF-7 (breast adenocarcinoma), A-549 (lung adenocarcinoma) cell lines, and WI-38 (cell line composed of fibroblasts) were derived from The European Collection of Authenticated Cell Cultures (ECACC, Salisbury, UK), cultured in DMEM medium (Gibco™, Dublin, Ireland) supplemented with 10% fetal bovine serum (Gibco™, Brasilia, Brazil). The cells were cultured in an incubator at 37 °C in a humidified 5% CO2 atmosphere and subcultured two times a week.
(§3) The toxicity of compounds was studied on cultured cell lines according to standard MTT protocol.
On the technique in general: Formazan colour is commonly taken as a measure of viable cells.

Assay [3] concerns MCF-7 (human breast cancer). The experiment in a line: MTT-test MCF-7. The assay is classed as cell-based. How it is done: as §1, §2, §3
In assay [4] the test system is HCT116 (human colorectal carcinoma). In words: MTT-test HCT116. The format is cell-based. As for the experimental part:
as §1, §2, §3

Assay [5] concerns WI-38 (human fetal lung fibroblast). In words: MTT-test WI-38. The assay is classed as cell-based. As for the experimental part: as §1, §2, §3

Molecule `N=C(N)NN` [Aminoguanidine, reference compound] returned an IC50 in assay [1] of 5170 µM. Further, the “Antiglycation activity, M ± SEM” value in assay [1] (concentration 1000 µM) is listed as 21.6 ± 1.8%; in assay [1] (concentration 3000 µM) it was 39.5 ± 2.2%; in assay [1] (concentration 10,000 µM), 62.0 ± 2.0%.

Turning to `N.N.[Cl][Pt][Cl]` [Cisplatin, reference compound], the IC50 is 10.4 ± 1.5 µM in assay [2], 15.5 ± 3 µM in assay [3], 8.3 ± 3.5 µM in assay [4] and 16.3 ± 1.9 µM in assay [5].
